Key:
Male Sprague-Dawley rats [1] = assay: Experiment 2: effects of PD 145065 or losartan before or after NOS blockade on MAP; assay type: in vivo, rat
Description: (§1) Male Sprague-Dawley rats (325-400 g) obtained from Charles River Laboratories (Montreal, Quebec, Canada) were housed individually under conditions of a 12 h light/12 h dark cycle, with room temperature at 22-24° C., and were provided with Purina Rodent Chow and tap water ad libitum for at least 2 days before any experiments were started.
The surgical method was based on the technique of Thompson et at. (Hypertension 20: 809-815 (1992)). […] Two days after surgery, MAP could be recorded (Narco Physiograph, E&I Instruments, Houston, Tex. or MacLab Data Acquisition System, ADInstruments, Milford, Mass., U.S.A.). […] Baseline MAP was determined from mean readings over 5 min, taken from each rat at 15 min intervals for at least 1 h prior to the start of any experiment. […] MAP values are expressed as an average MAP over 2-3 min following the establishment of a new steady state (i.e., MAP is no longer changing).
After obtaining appropriate baseline steady-state levels of MAP, the effects of administration of losartan (30 mg/kg i.p., n=3, under 30 mg/kg i.p. pentabarbital anesthetic) or PD 145065 (10 mg/kg/min, i,v., n=6, conscious rats previously catheterized) on resting MAP and then on the L-NAME (100 mg/kg, i.p.)-induced pressor response were assessed in two ways. […]

adult Wistar rats = assay: Apomorphine-induced erection model; assay type: in vivo, rat
Description: Using the well-established apomorphine (APO)-induced erection model (apomorphine 80 μg/kg, administered subcutaneously), we counted the erections per 30 min interval in adult Wistar rats, per the protocol of Heaton, J. P. W., et al. (1991)(43). Rats were pretested with apomorphine alone to confirm and quantify normal erectile response(control Groups A and B). Rats were then treated with L-NAME (100 mg/kg, administered intraperitoneally) alone, acutely (at<1 h) and at 3 h; or the combination of ETA/B antagonist (PD 145065, 5 mg/kg/min, continuous intravenous infusion)+L-NAME.

Male Sprague-Dawley rats [2] = assay: Experiment 1: cumulative vasoconstrictor blockade following acute NO synthase inhibition, MAP response; assay type: in vivo, rat; conditions: for % of range (MAP lowering as % of MAPrange) / delta MAP (peak MAP lowering): sequential cumulative blockade, mean ± S.D.
Description: as §1
The surgical method was based on the technique of Thompson et at. (Hypertension 20: 809-815 (1992)). In brief, rats were anesthetized with ketamine/xylazine (70/5 mg/kg i.p.), and the descending aorta distal to the kidneys was catheterized with small bore TEFLON® tubing (0.012-in. i.d., o.d. 30 gauge, Cole-Parmer, Laval, Quebec, Canada) inserted into vinyl tubing (0.02-in. i.d., 0.060-in, o.d., 23 gauge). […] The catheters were filled with heparinized saline (10 IU/mL) and held in place by a small amount of cyanoacrylate tissue glue at the puncture site. The catheters were tunneled subcutaneously and exteriorized at the back of the neck and sutured in place. Two days after surgery, MAP could be recorded (Narco Physiograph, E&I Instruments, Houston, Tex. or MacLab Data Acquisition System, ADInstruments, Milford, Mass., U.S.A.). After connection, an equilibration period of approximately 30 min was allowed for the determination of the steady state level of MAP before any recording began. Baseline MAP was determined from mean readings over 5 min, taken from each rat at 15 min intervals for at least 1 h prior to the start of any experiment. After obtaining a baseline MAP, the cumulative/sequential vasoconstrictor blockade was started. MAP values are expressed as an average MAP over 2-3 min following the establishment of a new steady state (i.e., MAP is no longer changing).
NOS was inhibited by a single i.p. injection of N^ω-nitro-L-arginine-methyl ester (L-NAME, Sigma, 100 mg/kg; 100 mg/mL 0.9% sterile saline solution, Baxter Corp., Toronto, Ontario, Canada). The α1-adrenoceptor antagonist prazosin® (Sigma Chemical Company, St. Louis, Mo., U.S.A.) at a dose of 1 mg/Kg (in 0.9% saline and 5% ethanol [vol/vol], total volume 1 mL/kg) was used to block the majority of the SNS induced peripheral vasoconstriction. The non-peptide AT1 receptor antagonist losartan® (Dupont-Merck, 30 mg/kg i.p.) was used to block the effects of Ang II. The V1/V2 receptor antagonist [β-mercapto-β, β-cyclopenta-methylenepropionyl, O-Et-Tyr2-Val4-Arg8]-vasopressin (AVP) (20 μg/kg/min i.v., Sigma) was utilized to block the effects of vasopressin. The effects of the endothelin vasoconstrictor system, via ETA and ETB receptors, were blocked with a commercially available endothelin antagonist PD 145065 (100 mg/kg/min i.v., bolus, donated by Parke-Davis Pharmaceuticals). Each rat in the study received all of the aforementioned vasoconstrictor antagonists (i.e., a cumulative/sequential blockade).
The interval between administration was up to 15 min, where a new steady state MAP had been established before the blockade of the next vasoconstrictor system.
All data are expressed as a peak MAP lowering as a mean±S.D. Comparison of means between groups at each treatment level was done using a Student's T-test with the Bonferroni correction method, where appropriate.

[3] = background statement; cited from earlier work
pudendal vasculature = assay: Isolated perfusion of the pudendal vasculature, perfusion pressure response; set-up: species or system rat
Description: Vascular responses using the isolated perfusion of the pudendal vasculature preparation have been assessed. FIG. 3 illustrates the dose response curve to the α-adrenoceptor agonist methoxamine (MXA) alone. FIG. 4 illustrates the dose-response curve to endothelin alone.
Male Wistar rats (400-500 g), obtained from Charles River Laboratories (Montreal, Quebec, Canada), were housed individually under conditions of a 12 h light/12 h dark cycle (temperature of 22-24° C.), and were provided with Purina Rodent Chow and tap water ad libitum for at least two days before starting any experiment.
The rats were anaesthetized with sodium pentabarbital (60 mg/kg i.p.) and the lower abdominal aorta was exposed through a mid-line incision. The isolation of the pudendal vasculature was developed by sequential ligation of all branches of the abdominal aorta not directly supplying the pudendal vasculature. The following arteries were dissected free and ligated: iliaca, femoralis, poplitea, glutea cranial, umbilicalis, epigastria caudal, pudenda external, glutea caudal, obturatoria, circumflexa femoris lateral, circumflexa femoris medial. After heparinization (1000 U/kg), the abdominal aorta was cannulated with a smooth, blunted 19-gauge needle. The arterial catheter was placed caudad into the aorta and the vena cava was cut and vented freely through the widely open abdominal cavity. The tip of the needle was advanced down the aorta to the iliac bifurcation and sutured in place. […] The perfusate was infused for 10 min, to flush the penile vasculature of blood, before starting any experiment.
The perfusate consisted of dextran (15%, average molecular weight: 71,400 Da, Sigma, St. Louis, Mo., U.S.A.) in Tyrode's solution (pH 7.4), which was aerated with 95% O2 and 5% CO2. The composition of the Tyrode's solution was KCI 20, CaCl2.2H2O 32.3, MgCl2.6H2O 5.1, NaH2PO4.2H2O 6.2, NaHCO3 100, glucose 100, and NaCl 800 mg per 100 mL fluid. The perfusate was held in a reservoir, and passed through a bubble trapping/mixing chamber and heating bath by an injection port located prior to the bubble trap for the introduction of pharmacological agents. An in-line peristaltic pump was used to establish flow at 0.5 mL/kg/min (Minipuls 2, Gilson Medical Elec., Inc., Middleton, Wis., U.S.A.). Added pharmacological agents, methoxamine (MXA) and sodium nitroprusside (SNP), were delivered by a syringe pump (Harvard Apparatus Infusion/Withdrawal Pump, Millis, Mass., U.S.A.). A servo-controlled heat chamber served to maintain rectal temperature at 36-38° C.

[4] = L-NAME (100 mg/kg i.p.) treated group

Compound: COC(=O)[C@@H](N)CCCNC(=N)N[N+](=O)[O-] [L-NAME, N^ω-nitro-L-arginine-methyl ester]
- delta MAP response 20 min after L-NAME (Male Sprague-Dawley rats [1]; saline pre-treatment group, L-NAME 100 mg/kg i.p.): 40±8 mmHg
- mean number of erections per 30 min interval (adult Wistar rats; L-NAME 100 mg/kg i.p. alone, at 3 h, apomorphine-induced): 3.7 ± 1.38
- steady state level of MAP (Male Sprague-Dawley rats [2]; L-NAME-treated animals, before vasoconstrictor blockade): 108±9 mmHg
- experimentally induced pressure increase as a result of NOS inhibition (Male Sprague-Dawley rats [2]; rats): 30-40%

Compound: COc1cc2nc(N3CCN(C(=O)c4ccco4)CC3)nc(N)c2cc1OC [prazosin]
- % of range (MAP lowering as % of MAPrange) (Male Sprague-Dawley rats [2]; [4]): 25 ± 10 %
- delta MAP (peak MAP lowering) (Male Sprague-Dawley rats [2]; [4]): 27 ± 14 mmHg
- % of range (MAP lowering as % of MAPrange) (Male Sprague-Dawley rats [2]; saline control group): 48 ± 8%
- delta MAP (peak MAP lowering) (Male Sprague-Dawley rats [2]; saline control group): 36 ± 6 mmHg

Compound: ET-1: endothelin-1, vasoconstrictor peptide
- potency as a vasoconstrictor relative to Ang II or catecholamines [3]: approximately 100 times

Compound: COc1ccc(OC)c(C(O)C(C)N)c1 (stereo not drawn) [methoxamine]
- Δ Perfusion Pressure (pudendal vasculature; Control, methoxamine 0.1 μg/ml, n = 6): 0 mmHg
- Δ Perfusion Pressure (pudendal vasculature; Control, methoxamine 0.25 μg/ml, n = 6): 0 mmHg
- Δ Perfusion Pressure (pudendal vasculature; Control, methoxamine 0.5 μg/ml, n = 6): 0 mmHg
- Δ Perfusion Pressure (pudendal vasculature; Control, methoxamine 1.0 μg/ml, n = 6): 4 ± 1 mmHg
- Δ Perfusion Pressure (pudendal vasculature; Control, methoxamine 2.0 μg/ml, n = 6): 11 ± 2 mmHg
- Δ Perfusion Pressure (pudendal vasculature; Control, methoxamine 4.0 μg/ml, n = 6): 36 ± 11 mmHg
- Δ Perfusion Pressure (pudendal vasculature; Control, methoxamine 8.0 μg/ml, n = 6): 67 ± 24 mmHg
- Δ Perfusion Pressure (pudendal vasculature; Endothelin sub-pressor, methoxamine 0.1 μg/ml, n = 4): 0 mmHg
- Δ Perfusion Pressure (pudendal vasculature; Endothelin sub-pressor, methoxamine 0.25 μg/ml, n = 4): 34 ± 2 mmHg
- Δ Perfusion Pressure (pudendal vasculature; Endothelin sub-pressor, methoxamine 0.5 μg/ml, n = 4): 93 ± 30 mmHg
- Δ Perfusion Pressure (pudendal vasculature; Endothelin sub-pressor, methoxamine 1.0 μg/ml, n = 4): 168 ± 16 mmHg
- shift of MXA concentration-response (perfusion pressure) relationship to lower concentrations (pudendal vasculature; with low sub-pressor dose of endothelin vs MXA alone): more than 10 fold

Compound: CC[C@H](C)[C@H](NC(=O)[C@H](CC(=O)O)NC(=O)[C@H](CC(C)C)NC(=O)[C@H](Cc1c[nH]cn1)NC(=O)[C@@H]1CSSC[C@H](N)C(=O)N[C@@H](CO)C(=O)N[C@H]2CSSC[C@H](NC(=O)[C@H](CCC(=O)O)NC(=O)[C@H](CCCCN)NC(=O)[C@H](CC(=O)O)NC(=O)[C@H](CCSC)NC(=O)[C@H](CC(C)C)NC(=O)[C@H](CO)NC(=O)[C@H](CO)NC2=O)C(=O)N[C@@H](C(C)C)C(=O)N[C@@H](Cc2ccc(O)cc2)C(=O)N[C@@H](Cc2ccccc2)C(=O)N1)C(=O)N[C@H](C(=O)N[C@@H](Cc1c[nH]c2ccccc12)C(=O)O)[C@@H](C)CC [Endothelin]
- Δ Perfusion Pressure (pudendal vasculature; Endothelin sub-pressor alone, methoxamine 0 μg/ml, n = 4): 0 mmHg

Compound: CN1CCc2cccc3c2[C@H]1Cc1ccc(O)c(O)c1-3 [apomorphine]
- mean number of erections per 30 min interval (adult Wistar rats; Group-A (control): apomorphine 80 μg/kg s.c. alone, mean ± S.D.): 3.0 ± 1.31
- mean number of erections per 30 min interval (adult Wistar rats; Group-B (control): apomorphine 80 μg/kg s.c. alone, mean ± S.D.): 2.5 ± 0.58

Compound: [β-mercapto-β, β-cyclopenta-methylenepropionyl, O-Et-Tyr2-Val4-Arg8]-vasopressin [(O-ET)VAVP]
- % of range (MAP lowering as % of MAPrange) (Male Sprague-Dawley rats [2]; [4]): 15 ± 9 %
- delta MAP (peak MAP lowering) (Male Sprague-Dawley rats [2]; [4]): 19 ± 13 mmHg
- % of range (MAP lowering as % of MAPrange) (Male Sprague-Dawley rats [2]; saline control group): 37 ± 15%
- delta MAP (peak MAP lowering) (Male Sprague-Dawley rats [2]; saline control group): 21 ± 11 mmHg

Compound: CCCCc1nc(Cl)c(CO)n1Cc1ccc(-c2ccccc2-c2nn[nH]n2)cc1 [losartan]
- level of MAP after treatment (Male Sprague-Dawley rats [1]; losartan 30 mg/kg i.p., pentabarbital anesthetic, baseline 100±15 mmHg): 78±21 mmHg
- % of range (MAP lowering as % of MAPrange) (Male Sprague-Dawley rats [2]; [4]): 24 ± 12%
- delta MAP (peak MAP lowering) (Male Sprague-Dawley rats [2]; [4]): 25 ± 13 mmHg
- % of range (MAP lowering as % of MAPrange) (Male Sprague-Dawley rats [2]; saline control group): 27 ± 8%
- delta MAP (peak MAP lowering) (Male Sprague-Dawley rats [2]; saline control group): 20 ± 6 mmHg
